Consider 1 compound from PMC4676711 (ACS chemical neuroscience, 2015).

As usually defined, the share remaining is the share of the starting amount still present when the sample was taken.

The series in a line: plasma stability. The format is in vitro ADME. Conditions: mouse, plasma (K2 EDTA).

Regarding `CC1CC(OC(=O)C(O)c2ccccc2)CC(C)(C)N1C` (stereo not shown) [Eucatropine], the fraction remaining at 0.5 h, 1 μM is 43.2%.
